Test results reported in patent publication US20120053239A1, “TREATMENT FOR INTESTINAL GAS, BLOATING, MICROSCOPIC COLITIS, INFLAMMATORY BOWEL DISEASE AND TRAVELER'S DIARRHEA USING COLLOIDAL BISMUTH SUBCITRATE” (priority 2006, published 2012).

Columns and labels:
[1] = Single dose of CBS in a dog with excessive gas after a large meal; type: in vivo; conditions: single dose of CBS 125 mg
Experimental: (§1) The inventor has specific clinical experience with the use of CBS. Six patients who had episodic both severe flatus passage and gastrointestinal discomfort after the consumption of large quantities of nonabsorbable carbohydrates were treated with CBS obtained from a compounding pharmacy. […] A single dose of CBS 125 mg was administered to a dog with excessive and bothersome gas following a large meal including table food.

[2] = Inventor's clinical experience: CBS in patients with severe flatus passage and gastrointestinal discomfort after nonabsorbable carbohydrates; type: in vivo, human; conditions: six patients; CBS 125 mg, 1 or 2 capsules per day or twice a day for one to two days
Experimental: as §1

[3] = cited from earlier work
[4] = CBS in one patient with symptomatic microscopic colitis; type: in vivo, human; conditions: CBS 600 mg three times daily for one month
[5] = 20 clinical studies, more than 5000 patients; cited from earlier work

Row | Molecule | flatus after administration [1] | acute symptoms of excess of gas passage [2] | toxic effects [2] | safety of use in nonulcer dyspepsia ([3]; 480 mg of CBS daily for 8 weeks) | serum bismuth levels after ingestion ([3]; up to 480 mg per day of CBS for more than 4 weeks) | symptoms of microscopic colitis [4] | side effects compared with ranitidine alone [5]
1 | colloidal bismuth subcitrate [CBS] | Complete session of flatus | completely eliminated all of acute symptoms | No toxic effects were noted | safe use | safe serum bismuth levels | complete resolution of symptoms | 
2 | CNC(=C[N+](=O)[O-])NCCSCc1ccc(CN(C)C)o1.O=C([O-])CC(O)(CC(=O)[O-])C(=O)[O-].[Bi+3] [ranitidine bismuth citrate] |  |  |  |  |  |  | no different than those seen with ranitidine alone
